Columns and labels:
hP2X7 = biological target: T1, hP2X7 (Homo sapiens, UniProt Q99572); experiment: P2X7 antagonism: ligand-induced Ca2+ flux in 1321N1 astrocytoma cells overexpressing hP2X7; type: cell-based; conditions: pIC50 = -log(IC50), read-out: hP2RX7pIC50 (mean pIC50 values) (converted)
T1 construct: expressed in transfected cells; host or cells: 1321N1 astrocytoma cells
T1 sequence (Q99572 1-595): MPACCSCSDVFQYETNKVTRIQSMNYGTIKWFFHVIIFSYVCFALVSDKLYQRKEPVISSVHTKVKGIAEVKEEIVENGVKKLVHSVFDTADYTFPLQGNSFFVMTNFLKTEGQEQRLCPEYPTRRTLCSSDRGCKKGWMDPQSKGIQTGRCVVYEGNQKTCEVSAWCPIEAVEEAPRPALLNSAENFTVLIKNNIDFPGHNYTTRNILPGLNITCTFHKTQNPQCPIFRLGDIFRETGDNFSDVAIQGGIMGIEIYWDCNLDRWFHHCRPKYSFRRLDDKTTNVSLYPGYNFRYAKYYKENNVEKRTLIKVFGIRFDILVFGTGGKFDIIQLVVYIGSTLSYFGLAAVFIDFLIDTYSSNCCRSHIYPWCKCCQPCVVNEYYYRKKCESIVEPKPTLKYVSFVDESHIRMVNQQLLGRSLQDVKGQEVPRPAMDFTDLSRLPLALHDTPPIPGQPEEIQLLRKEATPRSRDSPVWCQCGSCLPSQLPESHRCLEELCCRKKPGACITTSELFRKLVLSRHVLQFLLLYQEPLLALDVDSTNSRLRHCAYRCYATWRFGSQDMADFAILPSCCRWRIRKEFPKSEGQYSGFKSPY
Method in brief: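 Intracellular Ca2+ tracked with a quenched Ca2+-sensitive fluorescent dye kit (excitation 488 nm, emission 510-560 nm) in 1321N1 cells, before and after agonist addition in presence of antagonist. Effects expressed as % control and IC50.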

P2X7 = biological target: T2, P2X7 (Homo sapiens, UniProt Q99572); experiment: THP-1 YoPro uptake assay (BzATP-stimulated Yo-Pro-1 uptake); type: cell-based; conditions: Table F-10, THP-1 cells, read-out: mean pIC50 values for P2X7 antagonism (converted)
T2 construct: endogenous in cells; host or cells: THP-1 human monocytic cell line
T2 sequence (Q99572 1-595): T1 sequence (Q99572 1-595)

Row | Structure (SMILES) | IC50 (hP2X7) [nM] | melting point [°C] | IC50 (P2X7) [nM]
1 | O=C(NCC(c1cnc(C(F)(F)F)nc1)N1CCC(F)(F)CC1)c1cccc2ncccc12 (single isomer, unassigned) [Compound 46] | 27.5 | 217.7 | –
2 | O=C(NCC(c1ccc(Cl)nc1)N1CCC(F)(F)CC1)c1cccc2ncccc12 (stereo not shown) [Compound 7] | 25.1 | 187.3 | –
3 | O=C(NCC(c1ccc(C(F)(F)F)nc1)N1CCNCC1)c1cccc2ncccc12 (stereo not shown) [Compound 8] | > 10000 | 198 | –
4 | O=C(NCC(c1ccc(C(F)(F)F)nc1)N1CCC(O)(c2ccc(Cl)cc2)CC1)c1cccc2ncccc12 (stereo not shown) [Compound 29] | > 10000 | 155 to 162.2 | –
5 | NC(=O)C1CCN(C(CNC(=O)c2cccc3ncccc23)c2ccc(C(F)(F)F)nc2)CC1 (stereo not shown) [Compound 34] | > 10000 | 253.7 to 254.3 | –
6 | O=C(NCC(c1cnc(C(F)(F)F)nc1)N1CCCCC1)c1cccc2ncccc12 (stereo not shown) [Compound 35] | 21.4 | 183.6 | –
7 | O=C(NCC(c1cnc(C(F)(F)F)nc1)N1CCC(F)(F)CC1)c1cccc2nc(NCCO)ccc12 (stereo not shown) [Compound 39] | 33.9 | 125.3 | –
8 | O=C(NCC(c1cnc(C(F)(F)F)nc1)N1CCC(F)(F)CC1)c1cccc2nc(O)ccc12 (stereo not shown) [Compound 77] | 224 | 206.9 | –
9 | O=C(NCC(c1cnc(C(F)(F)F)nc1)N1CCC(F)(F)CC1)c1cccc2nc(N3CCNCC3)ccc12 (stereo not shown) [Compound 78] | 25.7 | 202.9 | –
10 | Cc1ncc(C(CNC(=O)c2cccc3nc(N4CCOCC4)ccc23)N2CCC(F)(F)CC2)cn1 (stereo not shown) [Compound 96] | 47.9 | 160 | –
11 | O=C(NCC(c1cnc(C(F)(F)F)nc1)N1CCOCC1)c1cccc2nc(N3CCNCC3)ccc12 (stereo not shown) [Compound 102] | 72.4 | 234.3 | –
12 | CC(C)(C)OC(=O)N1CCN(c2ccc3c(C(=O)NCC(c4cnc(C(F)(F)F)nc4)N4CCCC(F)(F)C4)cccc3n2)CC1 (stereo not shown) [Compound 106] | 138 | 159.7 | –
13 | CC(C)N1CCN(c2ccc3c(C(=O)NCC(c4cnc(C(F)(F)F)nc4)N4CCC(F)(F)CC4)cccc3n2)CC1 (stereo not shown) [Compound 134] | – | 236.3 | –
14 | CC1CN(c2ccc3c(C(=O)NCC(c4cnc(C(F)(F)F)nc4)N4CCC(F)(F)CC4)cccc3n2)CC(C)O1 (stereo not shown) [Compound 140] | 91.2 | 191.5 | –
15 | NCCNc1ccc2c(C(=O)NCC(c3cnc(C(F)(F)F)nc3)N3CCOCC3)c(Cl)ccc2n1 (stereo not shown) [Compound 557] | – | – | 1.12

Continued, values first:

Row | IC50 (hP2X7) [nM] | melting point [°C] | IC50 (P2X7) [nM] | Structure (SMILES)
16 | – | – | 2.51 | O=C(NCC(c1cnc(C(F)(F)F)nc1)N1CCOCC1)c1c(Cl)ccc2nc(N3CC4CNCC4C3)ccc12 (stereo not shown) [Compound 558]
17 | – | – | 3.63 | O=C(NCC(c1cnc(C(F)(F)F)nc1)N1CCOCC1)c1c(Cl)ccc2nc(N3CCC4CNCC43)ccc12 (stereo not shown) [Compound 559]
18 | – | – | 4.9 | O=C(NCC(c1cnc(C(F)(F)F)nc1)N1CCOCC1)c1c(Cl)ccc2nc(N3CC4CCNC4C3)ccc12 (stereo not shown) [Compound 560]
19 | – | – | 1.35 | N[C@@H]1CCN(c2ccc3c(C(=O)NCC(c4cnc(C(F)(F)F)nc4)N4CCOCC4)c(Cl)ccc3n2)C1 (stereo partly shown) [Compound 561]
20 | – | – | 4.9 | CN[C@@H]1CCN(c2ccc3c(C(=O)NCC(c4cnc(C(F)(F)F)nc4)N4CCOCC4)c(Cl)ccc3n2)C1 (stereo partly shown) [Compound 562]
21 | – | – | 0.851 | N[C@H]1CCN(c2ccc3c(C(=O)NCC(c4cnc(C(F)(F)F)nc4)N4CCOCC4)c(Cl)ccc3n2)C1 (stereo partly shown) [Compound 563]
22 | – | – | 7.41 | O=C(NCC(c1cnc(C(F)(F)F)nc1)N1CCOCC1)c1c(Cl)ccc2nc(N3C[C@@H]4CCCN[C@@H]4C3)ccc12 (stereo partly shown) [Compound 564]
23 | – | – | 2.57 | O=C(NCC(c1cnc(C(F)(F)F)nc1)N1CCOCC1)c1c(Cl)ccc2nc(N3CC4CNC4C3)ccc12 (stereo not shown) [Compound 565]
24 | – | – | 10.7 | CSc1ncc(C(CNC(=O)c2c(Cl)ccc3ncccc23)N2CCC(F)(F)CC2)cn1 (stereo not shown) [Compound 582, 6-chloro-quinoline-5-carboxylic acid [2-(4,4-difluoro-piperidin-1-yl)-2-(2-methylsulfanyl-pyrimidin-5-yl)-ethyl]-amide]
25 | – | – | 112 | O=C(NCC(c1cnc(C(F)(F)F)nc1)N1CCC(F)(F)CC1)c1c(Cl)ccc2nc(O)ccc12 (stereo not shown) [Compound 593]
26 | – | – | 3.55 | Nc1ccc2c(C(=O)NCC(c3cnc(C(F)(F)F)nc3)N3CCC(F)(F)CC3)c(Cl)ccc2n1 (stereo not shown) [Compound 596]
27 | – | – | 33.1 | O=C(NCC(c1cnc(C(F)(F)F)nc1)N1CCOCC1)c1c(F)ccc2ncccc12 (stereo not shown) [Compound 609]

Reference: patent publication US8431704B2, “Quinoline or isoquinoline substituted P2X7 antagonists” (Janssen Pharmaceutica NV, priority 2008, dated 2013)
